Laboratory results taken from US10004701B2, “Methods and compositions for treating infection” (UNIVERSITY OF ROCHESTER, priority 2012, dated 2018).
Like-named read-outs stand apart in the source and are kept apart here.

Legend:
Assay in all cases: AK assay 384-well format, Prestwick library screening
E. faecium = format: cell-based, Enterococcus faecium; conditions: 50 μM final drug concentration; for fold induction at 50 µM: Enterococcus faecium, 3 h
[1] = tested on: S. aureus strain USA300-0114; format: cell-based, Staphylococcus aureus; conditions: 50 μM final drug concentration; for fold induction at 50 µM: Staphylococcus aureus, USA300, 3 h
K. pneumoniae = format: cell-based, Klebsiella pneumoniae; conditions: 50 μM final drug concentration; for fold induction at 50 µM: Klebsiella pneumoniae, 3 h
[2] = tested on: A. baumannii strain 98-37-09; format: cell-based, Acinetobacter baumannii; conditions: 50 μM final drug concentration; for fold induction at 50 µM: Acinetobacter baumannii, 983709, 3 h
P. aeruginosa = format: cell-based, Pseudomonas aeruginosa; conditions: 50 μM final drug concentration; for fold induction at 50 µM: Pseudomonas aeruginosa, 3 h
E. cloacae = format: cell-based, Enterobacter cloacae; conditions: 50 μM final drug concentration; for fold induction at 50 µM: Enterobacter cloacae, 3 h
E. coli = format: cell-based, Escherichia coli; conditions: 50 μM final drug concentration; for fold induction at 50 µM: Escherichia coli, 3 h
[3] = planktonic, cutoff for positive-scoring molecules 3-fold increase, read-out: AK-based Prestwick Library Screening Results, E. faecium (fold increase in extracellular AK activity)
[4] = planktonic, cutoff for positive-scoring molecules 3-fold increase, read-out: AK-based Prestwick Library Screening Results, S. aureus (fold increase in extracellular AK activity)
[5] = planktonic, cutoff for positive-scoring molecules 3-fold increase, read-out: AK-based Prestwick Library Screening Results, K. pneumoniae (fold increase in extracellular AK activity)
[6] = planktonic, cutoff for positive-scoring molecules 3-fold increase, read-out: AK-based Prestwick Library Screening Results, A. baumannii (fold increase in extracellular AK activity)
[7] = planktonic, cutoff for positive-scoring molecules 3-fold increase, read-out: AK-based Prestwick Library Screening Results, P. aeruginosa (fold increase in extracellular AK activity)
[8] = planktonic, cutoff for positive-scoring molecules 3-fold increase, read-out: AK-based Prestwick Library Screening Results, E. cloacae (fold increase in extracellular AK activity)
[9] = planktonic, cutoff for positive-scoring molecules 3-fold increase, read-out: AK-based Prestwick Library Screening Results, E. coli (fold increase in extracellular AK activity)
[10] = planktonic E. faecium, cutoff for positive-scoring molecules 3-fold increase, read-out: AK-based Prestwick Library Screening Results, E. faecium (increase in extracellular AK activity)
[11] = planktonic S. aureus, cutoff for positive-scoring molecules 3-fold increase, read-out: AK-based Prestwick Library Screening Results, S. aureus (increase in extracellular AK activity)
[12] = planktonic K. pneumoniae, cutoff for positive-scoring molecules 3-fold increase, read-out: AK-based Prestwick Library Screening Results, K. pneumoniae (increase in extracellular AK activity)
[13] = planktonic A. baumannii, cutoff for positive-scoring molecules 3-fold increase, read-out: AK-based Prestwick Library Screening Results, A. baumannii (increase in extracellular AK activity)
[14] = planktonic P. aeruginosa, cutoff for positive-scoring molecules 3-fold increase, read-out: AK-based Prestwick Library Screening Results, P. aeruginosa (increase in extracellular AK activity)
[15] = planktonic E. cloacae, cutoff for positive-scoring molecules 3-fold increase, read-out: AK-based Prestwick Library Screening Results, E. cloacae (increase in extracellular AK activity)
[16] = planktonic E. coli, cutoff for positive-scoring molecules 3-fold increase, read-out: AK-based Prestwick Library Screening Results, E. coli (increase in extracellular AK activity)
[17] = planktonic E. faecium, cutoff for positive-scoring molecules 3-fold increase
[18] = planktonic S. aureus, cutoff for positive-scoring molecules 3-fold increase
[19] = planktonic K. pneumoniae, cutoff for positive-scoring molecules 3-fold increase
[20] = planktonic A. baumannii, cutoff for positive-scoring molecules 3-fold increase
[21] = planktonic P. aeruginosa, cutoff for positive-scoring molecules 3-fold increase
[22] = planktonic E. cloacae, cutoff for positive-scoring molecules 3-fold increase

## CC(=O)Nc1cc2ccccc2oc1=O [Compound 3-Acetamidocoumarin, 3-Acetamidocoumarin]
E. faecium; cutoff for positive-scoring molecules 3-fold increase, read-out: AK-based Prestwick Library Screening Results, E. faecium (fold increase in extracellular AK activity)
  fold induction at 50 µM: 0.8
[1]; cutoff for positive-scoring molecules 3-fold increase, read-out: AK-based Prestwick Library Screening Results, S. aureus (fold increase in extracellular AK activity)
  fold induction at 50 µM: 0.4
K. pneumoniae; cutoff for positive-scoring molecules 3-fold increase, read-out: AK-based Prestwick Library Screening Results, K. pneumoniae (fold increase in extracellular AK activity)
  fold induction at 50 µM: 0.4
[2]; cutoff for positive-scoring molecules 3-fold increase, read-out: AK-based Prestwick Library Screening Results, A. baumannii (fold increase in extracellular AK activity)
  fold induction at 50 µM: 0.4
P. aeruginosa; cutoff for positive-scoring molecules 3-fold increase, read-out: AK-based Prestwick Library Screening Results, P. aeruginosa (fold increase in extracellular AK activity)
  fold induction at 50 µM: 0.4
E. cloacae; cutoff for positive-scoring molecules 3-fold increase, read-out: AK-based Prestwick Library Screening Results, E. cloacae (fold increase in extracellular AK activity)
  fold induction at 50 µM: 0.4
E. coli; cutoff for positive-scoring molecules 3-fold increase, read-out: AK-based Prestwick Library Screening Results, E. coli (fold increase in extracellular AK activity)
  fold induction at 50 µM: 0.5

## CC(=O)c1cc2ccccc2oc1=O [Compound 3-Acetylcoumarin, 3-Acetylcoumarin]
E. faecium; [3]
  fold induction at 50 µM: 0.9
[1]; [4]
  fold induction at 50 µM: 0.6
K. pneumoniae; [5]
  fold induction at 50 µM: 0.6
[2]; [6]
  fold induction at 50 µM: 0.8
P. aeruginosa; [7]
  fold induction at 50 µM: 0.8
E. cloacae; [8]
  fold induction at 50 µM: 1.1
E. coli; [9]
  fold induction at 50 µM: 0.7

## c1coc(CNc2ncnc3nc[nH]c23)c1 [Compound 6-Furfurylaminopurine, 6-Furfurylaminopurine]
E. faecium; [3]
  fold induction at 50 µM: 0.9
[1]; [4]
  fold induction at 50 µM: 0.6
K. pneumoniae; [5]
  fold induction at 50 µM: 0.5
[2]; [6]
  fold induction at 50 µM: 0.7
P. aeruginosa; [7]
  fold induction at 50 µM: 0.7
E. cloacae; [8]
  fold induction at 50 µM: 0.9
E. coli; [9]
  fold induction at 50 µM: 0.7

## CN1C2CC(=O)CC1C(O)C2 (stereo not shown) [Compound 6-Hydroxytropinone]
E. faecium; […]
  AK-based Prestwick Library Screening Results, E. faecium (fold increase in extracellular AK activity): 0.9
[1]; […]
  AK-based Prestwick Library Screening Results, S. aureus (fold increase in extracellular AK activity): 0.4
K. pneumoniae; […]
  AK-based Prestwick Library Screening Results, K. pneumoniae (fold increase in extracellular AK activity): 0.5
[2]; […]
  AK-based Prestwick Library Screening Results, A. baumannii (fold increase in extracellular AK activity): 0.5
P. aeruginosa; […]
  AK-based Prestwick Library Screening Results, P. aeruginosa (fold increase in extracellular AK activity): 0.4
E. cloacae; […]
  AK-based Prestwick Library Screening Results, E. cloacae (fold increase in extracellular AK activity): 0.4
E. coli; […]
  AK-based Prestwick Library Screening Results, E. coli (fold increase in extracellular AK activity): 0.5

## CNc1ncnc2c1ncn2[C@@H]1O[C@H](CO)[C@@H](O)[C@H]1O [Compound N6-methyladenosine, N6-methyladenosine]
E. faecium; [10]
  fold induction at 50 µM: 0.9
[1]; [11]
  fold induction at 50 µM: 0.5
K. pneumoniae; [12]
  fold induction at 50 µM: 0.5
[2]; [13]
  fold induction at 50 µM: 0.6
P. aeruginosa; [14]
  fold induction at 50 µM: 0.6
E. cloacae; [15]
  fold induction at 50 µM: 0.7
E. coli; [16]
  fold induction at 50 µM: 0.6

## CCN1C[C@]2(COC)CC[C@H](O)[C@@]34C5C[C@@H]6[C@@H](OC)C[C@](O)(C(CC23)C14)C5[C@H]6OC(C)=O (stereo partly shown) [Condelphine]
E. faecium; planktonic E. faecium, […], read-out: AK-based Prestwick library screening result, E. faecium (fold increase in extracellular AK activity)
  fold induction at 50 µM: 1.1
[1]; planktonic S. aureus, […], read-out: AK-based Prestwick library screening result, S. aureus (fold increase in extracellular AK activity)
  fold induction at 50 µM: 1.1
K. pneumoniae; planktonic K. pneumoniae, […], read-out: AK-based Prestwick library screening result, K. pneumoniae (fold increase in extracellular AK activity)
  fold induction at 50 µM: 1
[2]; planktonic A. baumannii, […], read-out: AK-based Prestwick library screening result, A. baumannii (fold increase in extracellular AK activity)
  fold induction at 50 µM: 1.1
P. aeruginosa; planktonic P. aeruginosa, […], read-out: AK-based Prestwick library screening result, P. aeruginosa (fold increase in extracellular AK activity)
  fold induction at 50 µM: 1
E. cloacae; planktonic E. cloacae, […], read-out: AK-based Prestwick library screening result, E. cloacae (fold increase in extracellular AK activity)
  fold induction at 50 µM: 1.2
E. coli; planktonic E. coli, […], read-out: AK-based Prestwick library screening result, E. coli (fold increase in extracellular AK activity)
  fold induction at 50 µM: 1.1

## C[C@H]1[C@H]2CC[C@H]3[C@@H]4CC=C5C[C@@H](N(C)C)CC[C@]5(C)[C@H]4CC[C@]23CN1C [Conessine]
E. faecium; planktonic, cutoff for positive 3-fold increase, read-out: AK-based Prestwick Library Screening Results, E. faecium (fold increase in extracellular AK activity)
  fold induction at 50 µM: 1.1
[1]; planktonic, cutoff for positive 3-fold increase, read-out: AK-based Prestwick Library Screening Results, S. aureus (fold increase in extracellular AK activity)
  fold induction at 50 µM: 1.2
K. pneumoniae; planktonic, cutoff for positive 3-fold increase, read-out: AK-based Prestwick Library Screening Results, K. pneumoniae (fold increase in extracellular AK activity)
  fold induction at 50 µM: 1.2
[2]; planktonic, cutoff for positive 3-fold increase, read-out: AK-based Prestwick Library Screening Results, A. baumannii (fold increase in extracellular AK activity)
  fold induction at 50 µM: 1.4
P. aeruginosa; planktonic, cutoff for positive 3-fold increase, read-out: AK-based Prestwick Library Screening Results, P. aeruginosa (fold increase in extracellular AK activity)
  fold induction at 50 µM: 1.2
E. cloacae; planktonic, cutoff for positive 3-fold increase, read-out: AK-based Prestwick Library Screening Results, E. cloacae (fold increase in extracellular AK activity)
  fold induction at 50 µM: 1.6
E. coli; planktonic, cutoff for positive 3-fold increase, read-out: AK-based Prestwick Library Screening Results, E. coli (fold increase in extracellular AK activity)
  fold induction at 50 µM: 1.5

## COc1ccc(C(=O)OC2C[C@H]3CC[C@@H](C2)N3C)cc1OC.Cl (stereo partly shown) [Convolamine hydrochloride]
E. faecium; [17]
  AK-based Prestwick Library Screening Results, E. faecium (increase in extracellular AK activity): 0.9
[1]; [18]
  AK-based Prestwick Library Screening Results, S. aureus (increase in extracellular AK activity): 0.6
K. pneumoniae; [19]
  AK-based Prestwick Library Screening Results, K. pneumoniae (increase in extracellular AK activity): 0.7
[2]; [20]
  AK-based Prestwick Library Screening Results, A. baumannii (increase in extracellular AK activity): 1.0
P. aeruginosa; [21]
  AK-based Prestwick Library Screening Results, P. aeruginosa (increase in extracellular AK activity): 0.8
E. cloacae; [22]
  AK-based Prestwick Library Screening Results, E. cloacae (increase in extracellular AK activity): 1.3
E. coli; planktonic E. coli, cutoff for positive-scoring molecules 3-fold increase
  AK-based Prestwick Library Screening Results, E. coli (increase in extracellular AK activity): 1.1

## COc1cc2cc3c4cc(OC)c(OC)cc4cc[n+]3c(C)c2cc1OC.O.[Cl-] [Coralyne chloride hydrate]
E. faecium; [17]
  AK-based Prestwick Library Screening Results, E. faecium (increase in extracellular AK activity): 0.9
[1]; [18]
  AK-based Prestwick Library Screening Results, S. aureus (increase in extracellular AK activity): 0.4
K. pneumoniae; [19]
  AK-based Prestwick Library Screening Results, K. pneumoniae (increase in extracellular AK activity): 0.6
[2]; [20]
  AK-based Prestwick Library Screening Results, A. baumannii (increase in extracellular AK activity): 0.8
P. aeruginosa; [21]
  AK-based Prestwick Library Screening Results, P. aeruginosa (increase in extracellular AK activity): 0.8
E. cloacae; [22]
  AK-based Prestwick Library Screening Results, E. cloacae (increase in extracellular AK activity): 1.1
E. coli; planktonic E. coli, […]
  AK-based Prestwick Library Screening Results, E. coli (increase in extracellular AK activity): 0.9

## C[C@]12C[C@H](O)[C@H]3[C@@H](CCC4=CC(=O)CC[C@@]43C)[C@@H]1CC[C@@H]2C(=O)CO [Corticosterone]
E. faecium; [10]
  fold induction at 50 µM: 0.9
[1]; [11]
  fold induction at 50 µM: 0.6
K. pneumoniae; [12]
  fold induction at 50 µM: 0.7
[2]; [13]
  fold induction at 50 µM: 0.9
P. aeruginosa; [14]
  fold induction at 50 µM: 0.8
E. cloacae; [15]
  fold induction at 50 µM: 1.2
E. coli; [16]
  fold induction at 50 µM: 0.9
